Experimental data reported in PMC7432475, “β-Carbolines in Experiments on Laboratory Animals” (International Journal of Molecular Sciences, 2020).
Values after ≈ are worked out from the molar mass of the structure shown. Where two headings read alike, the source gives them in different places.

How the values were obtained:
[1] = system: primary mesencephalic dopaminergic cell culture derived from embryonic mice; conditions: cited from earlier work
[2] = system: FAS, Gadd45a, Hspb1; Cxcl9, Irf1, Fasl, Icam1, Tnf, Vcam1; set-up: method as in PMID 17913302; conditions: cited from earlier work
[3] = system: caspase-3; set-up: method as in PMID 17913302; conditions: primary mesencephalic dopaminergic cell culture from embryonic mice; cited from earlier work
[4] = system: Artn, Bdnf, Egln1, Tgfb2, and Ncam1; set-up: method as in PMID 32285253; conditions: cited from earlier work
[5] = system: α-synuclein; set-up: method as in PMID 20374418; conditions: primary dopaminergic cell cultures; cited from earlier work
[6] = system: rats; set-up: method as in PMID 22380576; conditions: compared with controls; cited from earlier work
[7] = system: yeast and mammalian cells; set-up: method as in PMID 17545209; conditions: cited from earlier work
[8] = for share of the carboline taken in that was found in the blood: from average body mass, feed consumption and concentration in the feed; for increase of the carboline level in plasma versus control diet / Harman (ng/mL) in animal blood: stage I; for increase of the carboline level in plasma versus control diet: at the greatest addition to the diet; for Harman (ng/mL) in animal blood: fourteen weeks, n = 6
[9] = system: male Sprague Dawley rats; type: in vivo; conditions: stage 1; rats that received the lowest amounts of H and NH
[10] = system: MRC-5 cells; assay: Real-time cell proliferation analysis by xCELLigence system, MRC-5; type: cell-based, human; conditions: for IC50: Homo sapiens, MRC5; for cell proliferation rate compared to the control: 24 h after administration, 1–25 µM; for cytotoxic effect on the MRC-5 cell line: low concentration range (1–25 µM)
Procedure: (§1) Normal human lung fibroblasts (MRC-5) were purchased from ECACC, and human skin fibroblasts isolated from a person with Parkinson’s disease (AG20445) were purchased from the Coriell Institute. The cells were cultured in Eagle’s Minimum Essential Medium (EMEM, Corning) supplemented with antibiotics (Penicillin-Streptomycin Solution (ATCC) and 10% or 15% FBS (Sigma-Aldrich), respectively. Both cell lines were cultured at 37 °C, with the addition of 5% CO2 to the atmosphere.
(§2) Cell proliferation analysis was performed using an xCELLigence system (Roche). The cells were seeded in sixteen-well E-plates (Roche) at a density of 7.5 × 10^3 per well. After 24 h, the cells were treated with H, NH, and both in final concentrations of 1, 5, 10, 25, 50, and 100 μM. The control cells were cultured in the supplemented medium only. The real-time proliferation of the cells was estimated based on impedance measurement, expressed as a Cell Index (CI) value. The CI was monitored at 30 min intervals from the time of plating for six days.

[11] = system: A549; set-up: method as in PMID 10612592; conditions: cited from earlier work
[12] = system: U-87-MG; set-up: method as in PMID 10612592; conditions: cited from earlier work
[13] = system: HEL; set-up: method as in PMID 10612592; conditions: cited from earlier work
[14] = system: CAKI-1; set-up: method as in PMID 10612592; conditions: cited from earlier work
[15] = system: MRC-5 cells; assay: Apoptosis/necrosis assay (Casp 3/7-FITC/7-AAD flow cytometry), MRC-5; type: cell-based, human; conditions: 24 h, 5, 10, and 25 µM (Figure 2c)
Procedure: as §1
(§3) The apoptosis/necrosis assay was performed by double staining with CellEvent Caspase 3/7-FITC (Thermo Fisher Scientific) and 7-aminoactinomycin D (BD Pharmigen) fluorescent dyes. Briefly, the cells (4 × 10^5) were seeded onto six-well plates and incubated until 70–80% confluency. On the next day, the cells were treated with β-carbolines in a final concentration of 5, 10, and 25 µM. Afterward, the cells were detached with trypsin (Thermo Fisher Scientific), washed twice with Dulbecco’s Phosphate Buffered Saline (Thermo Fisher Scientific), and stained with fluorescent dyes for 30 min at 37 °C in the dark, in line with the manufacturer’s protocol. Cells were analyzed immediately with 488 nm excitation using an Accuri C6 flow cytometer (Becton Dickinson).

[16] = system: MCF-7; set-up: method as in PMID 10612592; conditions: cited from earlier work
[17] = system: male Sprague Dawley rats; assay: Battery of behavioral tests, stage 1; type: in vivo; conditions: individual chemical standards added to the diet
Procedure: The experiment was conducted in the animal housing facility at the Institute of Human Nutrition and Dietetics, Poznań University of Life Sciences, under conditions of natural light and with the temperature maintained during the experiment at 19–22 °C, and with a relative humidity of 55–60%. Seventeen-month-old male Sprague Dawley rats originating from a Charles River Laboratories farm were used in the experiment. The age of the rats corresponded to 51 years of human life. For the first ten days of the experiment (the adaptation period), the rats were fed ad libitum with a standard laboratory diet and water. The experiment was conducted in two stages. […] The food consumption of the individual rats was monitored daily by measuring the difference between the amount of diet supplied each day and the amount of diet remaining. Feces were collected for ten days in the seventh week of the experiment, and water content, protein, fat, dietary fiber, and ash were determined using standard analytical methods. Body mass was measured every seven days using an electronic balance. […]
A classic labyrinth (110 × 65 cm) was used, with corridors about […], located on the table raised 50 cm from the ground. […] The time needed to complete the route between the two points of departure and arrival was measured. […]

[18] = system: monoamine oxidase; set-up: method as in PMID 8957221; conditions: cited from earlier work
[19] = system: SK-MEL-2; set-up: method as in PMID 10612592; conditions: cited from earlier work
[20] = system: IA9; set-up: method as in PMID 10612592; conditions: cited from earlier work
[21] = system: AG20445 (PD cells); assay: Real-time cell proliferation analysis by xCELLigence system, AG20445; type: cell-based, human; conditions: 24 h after treatment, range of 1–50 µM
Procedure: as §1, §2

[22] = system: KB; set-up: method as in PMID 10612592; conditions: cited from earlier work
[23] = system: mice; set-up: method as in PMID 16183262; conditions: H 5–15 mg/kg i.p., NH 2.5–10 mg/kg i.p.; cited from earlier work
[24] = system: rats; set-up: method as in PMID 23107644; conditions: the two higher doses (5.0 mg/kg and 7.5 mg/kg); cited from earlier work
[25] = system: AG20445 cells; assay: Apoptosis/necrosis assay (Casp 3/7-FITC/7-AAD flow cytometry), AG20445; type: cell-based, human; conditions: 24 h, 5, 10, and 25 µM (Figure S2b)
Procedure: as §1, §3

[26] = in 100g, stage I
[27] = corresponds to ~50 µM, read-out: concentration giving 50% decrease in MRC-5 cell viability, converted
[28] = xCELLigence, read-out: concentration giving 50% decrease in MRC-5 cell viability

Cn1c2ccccc2c2cc[n+](C)cc21 [2,9-dimethyl-BC]
ATP content [1]: decreased | free radical production [1]: increased | mitochondrial membrane potential [1]: decreased | respiratory activity [1]: decreased | toxic effects on dopaminergic neurons and other cell constituents ([1]; primary dopaminergic culture): highly toxic effects

Cn1c2ccccc2c2ccncc21 [9-me-BC, 9-methyl-β-carboline]
expression of inflammation-related genes like Cxcl9, Irf1, Fasl, Icam1, Tnf, and Vcam1 [2]: reduced | expression of proteins in apoptosis-relevant pathways like FAS, Gadd45a, and Hspb1 [2]: downregulated | caspase-3 activity [3]: decrease of caspase-3 activity | gene expression of neurotrophic factors like Artn, Bdnf, Egln1, Tgfb2, and Ncam1 [4]: stimulated | content of α-synuclein [5]: lowered | number of dopaminergic neurons ([1]; concentration-dependent manner): capable of increasing the number of dopaminergic neurons | number of necrotic cells ([1]; primary mesencephalic dopaminergic cell culture from embryonic mice): reduced the number of necrotic cells | acquisition in a hippocampus-dependent task [6]: significantly accelerated acquisition

Cc1nccc2c1[nH]c1ccccc12 [H, harman]
protective effect against H2O2 and paraquat oxidative agents [7]: significant protective effect | share of the carboline taken in that was found in the blood [8]: about 0.15% | increase of the carboline level in plasma versus control diet [8]: increased by a factor of about four | Harman (ng/mL) in animal blood ([8]; group H1 = 10 µg H/kg of exp. diet): 0.038 ng/mL | Harman (ng/mL) in animal blood ([8]; group H2 = 15 µg H/kg of exp. diet): 0.052 ng/mL | Harman (ng/mL) in animal blood ([8]; group H3 = 20 µg H/kg of exp. diet): 0.084 ng/mL | Porsolt test: mobility [9]: more mobile than the control animals | IC50 [10, 27]: 9.11 µg/mL | IC50 [10, 28]: ~50 µM | cell proliferation rate compared to the control ([10]; MRC-5): significant increase in the cell proliferation rate | cytotoxic effect on the MRC-5 cell line [10]: neither H nor NH showed any cytotoxic effect | ED50 [11]: 9.3 µg/mL (≈ 51 µM) | ED50 [12]: 19.0 µg/mL (≈ 104 µM) | ED50 [13]: 9.8 µg/mL (≈ 53.8 µM) | ED50 [14]: 8.0 µg/mL (≈ 43.9 µM) | induction of apoptosis [15]: do not induce apoptosis | ED50 [16]: 19.0 µg/mL (≈ 104 µM) | effect on the animals' behavior [17]: did not produce a very marked effect | monoamine oxidase inhibition [18]: potent monoamine oxidase inhibitor | ED50 [19]: > 20 µg/mL | ED50 [20]: 6.1 µg/mL (≈ 33.5 µM) | CI values (proliferation) [21]: significant increase in CI values | ED50 [22]: 8.9 µg/mL (≈ 48.8 µM) | antidepressant action on mice [23]: positive effects | errors in working memory [24]: significantly fewer errors in working memory | induction of apoptosis [25]: do not induce apoptosis

c1ccc2c(c1)[nH]c1cnccc12 [NH, norharman]
share of the carboline taken in that was found in the blood [8]: about 0.5% | increase of the carboline level in plasma versus control diet [8]: increased two-fold | Porsolt test: mobility [9]: more mobile than the control animals | IC50 [10, 27]: 8.41 µg/mL | IC50 [10, 28]: ~50 µM | cell proliferation rate compared to the control ([10]; MRC-5): significant increase in the cell proliferation rate | proliferation rate (ranking) ([10]; MRC-5, final concentrations of 1, 5, and 10 μM): greatest proliferation rate | cytotoxic effect on the MRC-5 cell line [10]: neither H nor NH showed any cytotoxic effect | IDF [g] (insoluble dietary fiber) in feces ([26]; group NH1 (8 µg NH/kg diet)): 55,36 g | SDF [g] (soluble dietary fiber) in feces ([26]; group NH1 (8 µg NH/kg diet)): 0,04 g | IDF [g] (insoluble dietary fiber) in feces ([26]; group NH2 (12 µg NH/kg diet)): 54,46 g | SDF [g] (soluble dietary fiber) in feces ([26]; group NH2 (12 µg NH/kg diet)): 0,06 g | IDF [g] (insoluble dietary fiber) in feces ([26]; group NH3 (16 µg NH/kg diet)): 53,97 g | SDF [g] (soluble dietary fiber) in feces ([26]; group NH3 (16 µg NH/kg diet)): 0,07 g | induction of apoptosis [15]: do not induce apoptosis | effect on the animals' behavior [17]: did not produce a very marked effect | CI values (proliferation) [21]: significant increase in CI values | antidepressant action on mice [23]: positive effects | induction of apoptosis [25]: do not induce apoptosis
